This assay deals with nude mice, LX-1 lung xenograft intrarenal, tumor weight T/C. As to the kind of experiment: NCI In Vivo Anticancer Drug Screen. Data for tumor model Human Lung LX-1 Xenograft (intrarenal inoculation) in NU/NU Swiss (nude) mice. The following applies: endpoint: mean tumor weight change, higher = larger tumour. A digest of the protocol: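 Readout: T/C, i.e. treated-group tumor measurement over vehicle-control measurement. Mice bearing transplantable tumors were dosed with compound or vehicle.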

[1] abbreviates: dose: 50.0 mg/kg/injection, schedule: Q01DX010 (sc), vehicle: saline.
Setting [2] is: dose: 100.0 mg/kg/injection, schedule: Q01DX010 (sc), vehicle: saline.
The mark [3] stands for this setting: dose: 300.0 mg/kg/injection, schedule: Q04DX003 (sc), vehicle: saline with Tween-80.
[4] abbreviates: dose: 600.0 mg/kg/injection, schedule: Q04DX003 (sc), vehicle: saline with Tween-80.
[5] abbreviates: dose: 1200.0 mg/kg/injection, schedule: Q04DX003 (sc), vehicle: saline with Tween-80.
Setting [6] is: dose: 2400.0 mg/kg/injection, schedule: Q04DX003 (sc), vehicle: saline with Tween-80.
The mark [7] stands for this setting: dose: 12.5 mg/kg/injection, schedule: Q01DX010 (sc), vehicle: Klucel (hydroxypropylcellulose) (HPC).
The mark [8] stands for this setting: dose: 25.0 mg/kg/injection, schedule: Q01DX010 (sc), vehicle: Klucel (hydroxypropylcellulose) (HPC).
Where [9] appears, read: dose: 0.5 mg/kg/injection, schedule: Q01DX010 (sc), vehicle: saline.
[10] abbreviates: dose: 1.0 mg/kg/injection, schedule: Q01DX010 (sc), vehicle: saline.
[11] abbreviates: dose: 300.0 mg/kg/injection, schedule: Q04DX003 (sc), vehicle: saline.
[12] abbreviates: dose: 600.0 mg/kg/injection, schedule: Q04DX003 (sc), vehicle: saline.
Setting [13] is: dose: 1200.0 mg/kg/injection, schedule: Q04DX003 (sc), vehicle: saline.
The mark [14] stands for this setting: dose: 2.0 mg/kg/injection, schedule: Q01DX010 (sc), vehicle: saline.
The mark [15] stands for this setting: dose: 150.0 mg/kg/injection, schedule: Q04DX003 (sc), vehicle: saline.
Setting [16] is: dose: 50.0 mg/kg/injection, schedule: Q01DX010 (sc), vehicle: suspension in saline.
The mark [17] stands for this setting: dose: 100.0 mg/kg/injection, schedule: Q01DX010 (sc), vehicle: suspension in saline.

SMILES strings stand for the structures. Several values for one entry are separate records, joined by “and”; a condition that tells them apart may be missing. Identical values can stand only once. Records with an inconclusive call do not appear.

Consider `COc1cc2cc3c4cc(OC)c(OC)cc4cc[n+]3c(C)c2cc1OC` (tested in a mixture with another compound), for which the T/C was 118 % of control under setting [1] and 46 % of control under setting [2].

Turning to `CC(=O)O[C@@H]1[C@@H](O)C2=C3[C@]4(C)[C@@H]1C(C)(C)C(=O)C[C@@H]4[C@]3(O)[C@H](OC(C)=O)[C@@]1(C[C@@H]1C)C2=O`, the T/C (dose: 12.5 mg/kg/injection, schedule: Q01DX010 (sc), vehicle: saline with Tween-80) is 104 % of control; the T/C (dose: 25.0 mg/kg/injection, schedule: Q01DX010 (sc), vehicle: saline with Tween-80) is 58 % of control; the T/C (dose: 50.0 mg/kg/injection, schedule: Q01DX010 (sc), vehicle: saline with Tween-80) is 207 % of control.

For the compound `CCN(CC)CCNc1ccc(C)c2sc3ccc(O)cc3c(=O)c12`, the T/C was 71 % of control under setting [3], 98 % of control under setting [4], 83 % of control under setting [5] and 52 % of control under setting [6].

For the compound `Nc1ncnc2c1ccn2C1OC(CO)C(O)C1O` (stereo unspecified), the T/C (dose: 1.0 mg/kg/injection, schedule: Q01DX010 (sc), vehicle: Klucel (hydroxypropylcellulose) (HPC)) is 85 % of control; the T/C (dose: 2.0 mg/kg/injection, schedule: Q01DX010 (sc), vehicle: Klucel (hydroxypropylcellulose) (HPC)) was 101 % of control; the T/C (dose: 4.0 mg/kg/injection, schedule: Q01DX010 (sc), vehicle: Klucel (hydroxypropylcellulose) (HPC)) was 53 % of control.

As to `O=[N+]([O-])/C=C\c1ccc2c(c1)OCO2`, the T/C is, setting by setting: under setting [7], 71 % of control; under setting [8], 94 % of control; (dose: 800.0 mg/kg/injection, schedule: Q01DX010 (sc), vehicle: Klucel (hydroxypropylcellulose) (HPC)) 184 % of control.

Take `CCOC(OCC)C(=O)OCC(=O)[C@]1(O)Cc2c(O)c3c(c(O)c2[C@@H](OC2CC(N)C(O)C(C)O2)C1)C(=O)c1c(OC)cccc1C3=O` (stereo partly specified): the T/C was 68 % of control (dose: 2.0 mg/kg/injection, schedule: Q01DX010 (sc), vehicle: water) and 27 % of control (dose: 4.0 mg/kg/injection, schedule: Q01DX010 (sc), vehicle: water).

`COc1cc([C@@H]2c3cc4c(c(O)c3C[C@H]3COC(=O)[C@@H]32)OCO4)cc(OC)c1O`: the T/C is 97 % of control (dose: 0.06 mg/kg/injection, schedule: Q01DX010 (sc), vehicle: saline); 91 % of control (dose: 0.12 mg/kg/injection, schedule: Q01DX010 (sc), vehicle: saline); 74 % of control (dose: 0.25 mg/kg/injection, schedule: Q01DX010 (sc), vehicle: saline); 205 % of control under setting [9]; 76 % of control under setting [10].

For the compound `NC(=O)c1ncn(C2OC(CO)C(O)C2O)n1` (stereo unspecified), the T/C reads like this: under setting [11], 85 % of control; under setting [12], 95 % of control; under setting [13], 42 % of control.

In the case of `NC(=O)c1cn(C2OC(CO)C(O)C2O)c2ncnc(N)c12` (stereo unspecified), the T/C is 74 % of control under setting [9], 88 % of control under setting [10] and 27 % of control under setting [14].

For the compound `COc1cccc2c1C(=O)c1c(O)c3c(c(O)c1C2=O)C[C@@](O)(/C(C)=N/NC(=O)c1cccc([N+](=O)[O-])c1)C[C@@H]3OC1CC(N)C(O)C(C)O1` (stereo partly specified), the T/C reads like this: (dose: 8.0 mg/kg/injection, schedule: Q01DX010 (sc), vehicle: water) 68 % of control; (dose: 16.0 mg/kg/injection, schedule: Q01DX010 (sc), vehicle: water) 78 % of control; (dose: 24.0 mg/kg/injection, schedule: Q04DX003 (sc), vehicle: water) 54 % of control; (dose: 48.0 mg/kg/injection, schedule: Q04DX003 (sc), vehicle: water) 9 % of control; (dose: 96.0 mg/kg/injection, schedule: Q04DX003 (sc), vehicle: water) 25 % of control.

Regarding `Nc1nc(-c2ccccc2)c(Br)c(=O)[nH]1`, the T/C is, setting by setting: under setting [3], 77 % of control; under setting [4], 69 % of control; under setting [5], 54 % of control; under setting [6], 66 % of control.

With `CC1=NN(c2cccc(S(=O)(=O)O)c2)C(=O)C1N=Nc1cc(Cl)cc(S(=O)(=O)O)c1O.CC1=NN(c2cccc(S(=O)(=O)O)c2)C(=O)C1N=Nc1cc(Cl)cc(S(=O)(=O)O)c1O.[Cr]` (stereo unspecified), the T/C runs as follows: under setting [15], 171 % of control; under setting [11], 152 % of control; under setting [12], 110 % of control.

`Cc1c2cc(Cl)c3ccccc3c2c[n+]2ccccc12`: the T/C is 66 % of control under setting [3], 81 % of control under setting [4] and 70 % of control under setting [5].

Regarding `C=CC(=O)NCNC(=O)C=C`, the T/C runs as follows: (dose: 25.0 mg/kg/injection, schedule: Q01DX010 (sc), vehicle: saline) 88 % of control; under setting [1], 103 % of control; under setting [2], 64 % of control.

For `Cc1ccc(NC(=O)Oc2ccc(Br)cc2Br)c([N+](=O)[O-])c1`, the T/C is 61 % of control under setting [3], 98 % of control under setting [4], 93 % of control under setting [5] and 68 % of control under setting [6].

On to `C[C@H](N)C(=O)N[C@@H]1[C@H]2C(=C(O)C[C@@H](O)[C@@H]2O)C(=O)O[C@@H]1C`, for which the T/C was 113 % of control under setting [11]; 160 % of control under setting [12]; 54 % of control (dose: 900.0 mg/kg/injection, schedule: Q04DX003 (sc), vehicle: saline); 92 % of control and 115 % of control under setting [13]; 78 % of control (dose: 1800.0 mg/kg/injection, schedule: Q04DX003 (sc), vehicle: saline).

Take `Oc1ccccc1C=NCCC[N-]CCCN=Cc1ccccc1O.[Co]`: the T/C was 124 % of control under setting [16] and 79 % of control under setting [17].

In the case of `CN(N=O)C(=O)N[C@@H](C=O)[C@@H](O)[C@H](O)[C@H](O)CO`, the T/C was 32 % of control (dose: 75.0 mg/kg/injection, schedule: Q04DX003 (sc), vehicle: other); 39 % of control (dose: 75.0 mg/kg/injection, schedule: Q04DX003 (sc), vehicle: saline); 10 % of control (dose: 150.0 mg/kg/injection, schedule: Q04DX003 (sc), vehicle: other); 22 % of control under setting [15]; -56 % of control under setting [11].

For the compound `Cc1ccccc1N(CC1CO1)CC1CO1` (stereo unspecified), the T/C runs as follows: under setting [16], 33 % of control; under setting [17], 22 % of control; (dose: 200.0 mg/kg/injection, schedule: Q01DX010 (sc), vehicle: suspension in saline) 104 % of control; (dose: 400.0 mg/kg/injection, schedule: Q01DX010 (sc), vehicle: suspension in saline) 59 % of control.

`N[C@H](C(=O)O)[C@@H]1CC(Cl)=NO1`: the T/C by setting is: under setting [14], 16 % of control; (dose: 2.0 mg/kg/injection, schedule: Q01DX010 (sc), vehicle: suspension in saline) 30 % of control; (dose: 4.0 mg/kg/injection, schedule: Q01DX010 (sc), vehicle: suspension in saline) 33 % of control; (dose: 8.0 mg/kg/injection, schedule: Q01DX010 (sc), vehicle: suspension in saline) 45 % of control; (dose: 16.0 mg/kg/injection, schedule: Q01DX010 (sc), vehicle: suspension in saline) 15 % of control.

Consider `O=[N+]([O-])c1nccn1CC(O)CO` (stereo unspecified), for which the T/C under setting [12] is 91 % of control; the T/C under setting [13] was 78 % of control; the T/C (dose: 2400.0 mg/kg/injection, schedule: Q04DX003 (sc), vehicle: saline) is 108 % of control.

Take `C=CCNc1ccc(C)cc1`: the T/C under setting [7] is 98 % of control; the T/C under setting [8] was 171 % of control; the T/C (dose: 100.0 mg/kg/injection, schedule: Q01DX010 (sc), vehicle: Klucel (hydroxypropylcellulose) (HPC)) is 107 % of control; the T/C (dose: 200.0 mg/kg/injection, schedule: Q01DX010 (sc), vehicle: Klucel (hydroxypropylcellulose) (HPC)) was 42 % of control; the T/C (dose: 400.0 mg/kg/injection, schedule: Q01DX010 (sc), vehicle: Klucel (hydroxypropylcellulose) (HPC)) is 72 % of control.

Consider `Cn1c2nc(=O)n(-c3ccccc3)c(=O)c-2nc2c1CCCC2`, for which the T/C is, setting by setting: (dose: 75.0 mg/kg/injection, schedule: Q04DX003 (sc), vehicle: saline with Tween-80) 71 % of control; (dose: 150.0 mg/kg/injection, schedule: Q04DX003 (sc), vehicle: saline with Tween-80) 101 % of control.

The record behind these values is PubChem BioAssay AID264 (DTP/NCI, 2004).
